Entries after “also recorded” stand apart in the source; their conditions may differ. Structures can show the parent of a compound that is named as a salt.
How the values were obtained:
proteinase K = format: biochemical
[^35 S-]PrP^C = format: biochemical, Syrian hamster
[^35 S-]SHaPrP^C = [^35 S-]SHaPrP^C (Mesocricetus auratus, UniProt P04273); format: biochemical
Sequence of [^35 S-]SHaPrP^C (P04273 23-254 limits assumed): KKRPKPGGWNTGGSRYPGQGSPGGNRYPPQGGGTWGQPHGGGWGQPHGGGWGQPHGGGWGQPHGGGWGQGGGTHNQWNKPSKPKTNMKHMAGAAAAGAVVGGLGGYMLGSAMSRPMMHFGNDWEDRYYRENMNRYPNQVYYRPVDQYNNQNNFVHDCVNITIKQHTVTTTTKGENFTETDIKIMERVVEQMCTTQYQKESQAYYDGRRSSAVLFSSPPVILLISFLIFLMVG

Compound	Reduction of proteinase K activity (proteinase K)	Requirement of Gdn-HCl for complex formation ([^35 S-]PrP^C)	Effect of Sarkosyl on PrP^C /PrP peptide complexes ([^35 S-]SHaPrP^C)
N=C(N)N [Gdn-HCl, guanidine hydrochloride]	~ 90%	seemed to be essential	–
CCCCCCCCCCCC(=O)N(C)CC(=O)O [Sarkosyl]	–	–	disrupted the prion protein complexes and rendered the PrP^C sensitive to protease activity; also recorded: disrupted the PrP^C /PrP peptide complexes and rendered the PrP^C sensitive to protease activity

Source: patent publication US5750361A (priority 1995, dated 1998)
